Laboratory results as given in publication PMC4208292 (Bioorganic & medicinal chemistry letters, 2012).
Entries after “also recorded” stand apart in the source; their conditions may differ.

Key:
[1] = Pharmacokinetic profile in mice; assay type: in vivo; conditions: male, Swiss Albino, mouse, brain, iv, 1 mg/kg
ALK = ALK (Homo sapiens, UniProt Q9UM73); experiment: Kinase-binding assay; conditions: 10 μM; KINOMEscan profile
GFP-LRRK2[A2016T] = GFP-LRRK2[A2016T] (Homo sapiens, UniProt Q5S007, A2016T); experiment: Ser910/Ser935 phosphorylation immunoblot in stably transfected HEK293 cells; conditions: 90 min
FLT3(D835Y) = biological target: T1, FLT3(D835Y) (Homo sapiens, UniProt P36888, D835Y); experiment: Kinase-binding assay; conditions: 10 μM; KINOMEscan profile
T1 sequence (P36888 27-993 D835Y): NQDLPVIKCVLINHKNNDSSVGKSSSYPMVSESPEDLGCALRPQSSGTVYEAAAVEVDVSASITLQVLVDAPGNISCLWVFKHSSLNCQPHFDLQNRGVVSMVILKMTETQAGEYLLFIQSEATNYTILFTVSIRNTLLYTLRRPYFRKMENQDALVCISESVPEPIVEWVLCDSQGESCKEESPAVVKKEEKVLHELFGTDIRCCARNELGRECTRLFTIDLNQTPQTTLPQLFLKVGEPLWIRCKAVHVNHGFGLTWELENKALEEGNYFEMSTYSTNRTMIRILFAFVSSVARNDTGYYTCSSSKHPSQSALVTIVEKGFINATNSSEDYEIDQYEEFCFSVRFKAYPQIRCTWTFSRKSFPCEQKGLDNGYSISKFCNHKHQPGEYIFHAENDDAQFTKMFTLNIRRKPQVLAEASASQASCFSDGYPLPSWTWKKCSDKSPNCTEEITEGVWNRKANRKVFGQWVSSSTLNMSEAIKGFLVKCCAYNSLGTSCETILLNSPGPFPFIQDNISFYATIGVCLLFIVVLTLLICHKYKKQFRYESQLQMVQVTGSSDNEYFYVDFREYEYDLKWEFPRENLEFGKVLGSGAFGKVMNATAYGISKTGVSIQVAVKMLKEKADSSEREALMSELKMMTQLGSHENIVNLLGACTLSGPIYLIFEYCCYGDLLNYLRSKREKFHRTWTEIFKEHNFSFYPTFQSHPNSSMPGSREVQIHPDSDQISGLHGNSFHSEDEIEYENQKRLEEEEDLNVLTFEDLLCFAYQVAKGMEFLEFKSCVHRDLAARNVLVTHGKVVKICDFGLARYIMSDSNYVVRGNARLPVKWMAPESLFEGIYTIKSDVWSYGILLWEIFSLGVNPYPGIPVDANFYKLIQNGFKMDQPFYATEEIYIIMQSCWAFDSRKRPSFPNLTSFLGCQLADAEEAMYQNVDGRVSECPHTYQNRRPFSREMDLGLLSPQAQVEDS

smMLCK = smMLCK (Homo sapiens, UniProt Q15746); experiment: Radioactivity-based enzymatic kinase panel; assay type: biochemical
LRRK2 = LRRK2 (Mus musculus, UniProt Q5S006); experiment: Pharmacodynamic study of LRRK2 Ser910/Ser935 phosphorylation in mouse tissues; assay type: in vivo; conditions: intraperitoneal 100 mg/kg, normal mice
Chain of LRRK2 (Q5S006 whole entry): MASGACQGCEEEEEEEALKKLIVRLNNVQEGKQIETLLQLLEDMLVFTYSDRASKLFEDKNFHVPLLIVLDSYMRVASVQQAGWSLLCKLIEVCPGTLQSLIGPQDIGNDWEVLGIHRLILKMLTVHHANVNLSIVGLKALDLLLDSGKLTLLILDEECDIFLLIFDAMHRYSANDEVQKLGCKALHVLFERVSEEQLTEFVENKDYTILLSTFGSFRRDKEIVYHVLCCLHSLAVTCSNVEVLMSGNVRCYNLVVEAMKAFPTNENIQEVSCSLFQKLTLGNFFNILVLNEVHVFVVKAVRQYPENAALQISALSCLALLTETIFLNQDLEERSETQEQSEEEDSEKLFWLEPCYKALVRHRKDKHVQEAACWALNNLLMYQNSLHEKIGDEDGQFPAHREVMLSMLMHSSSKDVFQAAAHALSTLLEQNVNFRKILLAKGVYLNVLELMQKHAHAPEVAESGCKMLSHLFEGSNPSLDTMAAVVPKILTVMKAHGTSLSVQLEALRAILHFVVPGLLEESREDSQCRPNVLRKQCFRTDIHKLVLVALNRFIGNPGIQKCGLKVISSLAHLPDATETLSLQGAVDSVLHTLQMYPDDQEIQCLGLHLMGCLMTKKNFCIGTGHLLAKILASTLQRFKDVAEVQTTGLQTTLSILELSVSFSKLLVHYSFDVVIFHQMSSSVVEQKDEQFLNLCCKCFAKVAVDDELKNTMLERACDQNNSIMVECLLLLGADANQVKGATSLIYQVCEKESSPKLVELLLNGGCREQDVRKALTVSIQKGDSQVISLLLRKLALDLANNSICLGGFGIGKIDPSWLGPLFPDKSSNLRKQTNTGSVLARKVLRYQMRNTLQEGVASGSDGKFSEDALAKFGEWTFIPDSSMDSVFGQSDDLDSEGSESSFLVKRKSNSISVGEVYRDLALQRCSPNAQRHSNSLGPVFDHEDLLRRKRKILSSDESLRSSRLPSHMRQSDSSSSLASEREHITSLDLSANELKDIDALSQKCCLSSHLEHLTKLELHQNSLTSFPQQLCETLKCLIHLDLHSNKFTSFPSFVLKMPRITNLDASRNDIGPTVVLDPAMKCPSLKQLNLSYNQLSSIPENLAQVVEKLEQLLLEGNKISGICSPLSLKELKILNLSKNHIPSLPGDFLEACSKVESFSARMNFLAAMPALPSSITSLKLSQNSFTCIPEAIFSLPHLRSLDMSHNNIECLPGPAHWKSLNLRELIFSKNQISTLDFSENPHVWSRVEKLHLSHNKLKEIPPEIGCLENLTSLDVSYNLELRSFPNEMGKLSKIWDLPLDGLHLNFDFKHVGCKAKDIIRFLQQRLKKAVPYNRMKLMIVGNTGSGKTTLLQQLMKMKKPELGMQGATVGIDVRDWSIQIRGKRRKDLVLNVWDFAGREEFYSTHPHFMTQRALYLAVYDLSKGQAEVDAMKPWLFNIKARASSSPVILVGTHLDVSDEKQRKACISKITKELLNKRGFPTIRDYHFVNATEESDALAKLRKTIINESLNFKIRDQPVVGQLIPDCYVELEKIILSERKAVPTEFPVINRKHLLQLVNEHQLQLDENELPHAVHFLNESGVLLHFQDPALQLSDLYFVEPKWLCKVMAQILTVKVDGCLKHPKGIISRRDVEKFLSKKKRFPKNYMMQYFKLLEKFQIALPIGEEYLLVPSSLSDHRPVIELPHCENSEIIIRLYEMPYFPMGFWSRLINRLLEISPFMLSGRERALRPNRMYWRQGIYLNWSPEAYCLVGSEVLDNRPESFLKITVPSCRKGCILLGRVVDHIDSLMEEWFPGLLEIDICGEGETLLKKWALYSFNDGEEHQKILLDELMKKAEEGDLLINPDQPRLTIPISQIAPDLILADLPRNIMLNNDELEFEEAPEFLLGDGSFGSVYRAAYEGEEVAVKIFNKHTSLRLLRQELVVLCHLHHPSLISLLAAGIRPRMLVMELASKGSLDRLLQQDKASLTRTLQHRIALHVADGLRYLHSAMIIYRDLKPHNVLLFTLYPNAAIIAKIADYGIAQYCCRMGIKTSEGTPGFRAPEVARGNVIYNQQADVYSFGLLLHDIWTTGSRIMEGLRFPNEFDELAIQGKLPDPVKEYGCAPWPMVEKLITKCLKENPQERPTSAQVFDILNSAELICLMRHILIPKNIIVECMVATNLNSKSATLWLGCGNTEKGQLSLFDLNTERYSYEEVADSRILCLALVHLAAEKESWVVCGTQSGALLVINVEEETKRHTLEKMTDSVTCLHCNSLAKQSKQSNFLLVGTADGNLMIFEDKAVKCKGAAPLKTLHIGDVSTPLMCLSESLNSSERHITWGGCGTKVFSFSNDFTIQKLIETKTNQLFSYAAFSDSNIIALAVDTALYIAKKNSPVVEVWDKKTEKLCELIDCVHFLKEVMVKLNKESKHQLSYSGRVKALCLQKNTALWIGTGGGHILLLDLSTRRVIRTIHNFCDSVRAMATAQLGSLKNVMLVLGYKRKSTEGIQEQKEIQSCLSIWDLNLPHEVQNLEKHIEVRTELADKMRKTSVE

[2] = biological target: T2, wild-type LRRK2 (GST-LRRK2(1326–2517)) (Homo sapiens, UniProt Q5S007); experiment: LRRK2 enzyme activity assay
T2 sequence (Q5S007 1326-2517): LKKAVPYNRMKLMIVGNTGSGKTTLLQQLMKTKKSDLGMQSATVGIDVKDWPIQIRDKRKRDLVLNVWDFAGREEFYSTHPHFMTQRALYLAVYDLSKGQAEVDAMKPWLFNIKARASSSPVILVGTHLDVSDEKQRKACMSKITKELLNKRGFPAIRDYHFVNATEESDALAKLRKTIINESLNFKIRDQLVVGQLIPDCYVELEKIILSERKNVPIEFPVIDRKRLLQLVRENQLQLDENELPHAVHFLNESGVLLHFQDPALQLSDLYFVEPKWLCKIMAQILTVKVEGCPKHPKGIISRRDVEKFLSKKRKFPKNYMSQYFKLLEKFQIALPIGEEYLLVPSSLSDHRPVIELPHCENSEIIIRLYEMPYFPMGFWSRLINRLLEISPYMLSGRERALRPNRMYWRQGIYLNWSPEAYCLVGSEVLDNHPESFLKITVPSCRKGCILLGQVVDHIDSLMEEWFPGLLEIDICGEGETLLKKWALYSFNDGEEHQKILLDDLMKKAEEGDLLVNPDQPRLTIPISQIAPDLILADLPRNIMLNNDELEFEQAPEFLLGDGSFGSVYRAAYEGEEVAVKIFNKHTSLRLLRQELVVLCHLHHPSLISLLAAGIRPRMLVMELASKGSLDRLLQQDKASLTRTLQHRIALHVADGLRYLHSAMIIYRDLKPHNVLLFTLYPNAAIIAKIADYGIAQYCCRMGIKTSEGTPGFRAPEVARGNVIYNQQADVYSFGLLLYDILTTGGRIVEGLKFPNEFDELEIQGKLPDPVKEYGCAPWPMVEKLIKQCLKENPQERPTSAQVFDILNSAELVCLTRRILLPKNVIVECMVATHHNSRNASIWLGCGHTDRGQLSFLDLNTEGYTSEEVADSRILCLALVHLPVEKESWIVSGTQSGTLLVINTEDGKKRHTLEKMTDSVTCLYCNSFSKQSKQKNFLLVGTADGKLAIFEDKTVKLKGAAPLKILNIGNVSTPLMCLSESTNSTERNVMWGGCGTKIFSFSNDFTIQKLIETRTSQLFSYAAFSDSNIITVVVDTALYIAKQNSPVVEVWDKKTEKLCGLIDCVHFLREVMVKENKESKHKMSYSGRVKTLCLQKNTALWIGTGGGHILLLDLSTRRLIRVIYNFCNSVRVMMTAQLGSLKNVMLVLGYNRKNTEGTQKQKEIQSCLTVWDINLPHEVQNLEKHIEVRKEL

Chain of ALK (Q9UM73 19-1620, species assumed): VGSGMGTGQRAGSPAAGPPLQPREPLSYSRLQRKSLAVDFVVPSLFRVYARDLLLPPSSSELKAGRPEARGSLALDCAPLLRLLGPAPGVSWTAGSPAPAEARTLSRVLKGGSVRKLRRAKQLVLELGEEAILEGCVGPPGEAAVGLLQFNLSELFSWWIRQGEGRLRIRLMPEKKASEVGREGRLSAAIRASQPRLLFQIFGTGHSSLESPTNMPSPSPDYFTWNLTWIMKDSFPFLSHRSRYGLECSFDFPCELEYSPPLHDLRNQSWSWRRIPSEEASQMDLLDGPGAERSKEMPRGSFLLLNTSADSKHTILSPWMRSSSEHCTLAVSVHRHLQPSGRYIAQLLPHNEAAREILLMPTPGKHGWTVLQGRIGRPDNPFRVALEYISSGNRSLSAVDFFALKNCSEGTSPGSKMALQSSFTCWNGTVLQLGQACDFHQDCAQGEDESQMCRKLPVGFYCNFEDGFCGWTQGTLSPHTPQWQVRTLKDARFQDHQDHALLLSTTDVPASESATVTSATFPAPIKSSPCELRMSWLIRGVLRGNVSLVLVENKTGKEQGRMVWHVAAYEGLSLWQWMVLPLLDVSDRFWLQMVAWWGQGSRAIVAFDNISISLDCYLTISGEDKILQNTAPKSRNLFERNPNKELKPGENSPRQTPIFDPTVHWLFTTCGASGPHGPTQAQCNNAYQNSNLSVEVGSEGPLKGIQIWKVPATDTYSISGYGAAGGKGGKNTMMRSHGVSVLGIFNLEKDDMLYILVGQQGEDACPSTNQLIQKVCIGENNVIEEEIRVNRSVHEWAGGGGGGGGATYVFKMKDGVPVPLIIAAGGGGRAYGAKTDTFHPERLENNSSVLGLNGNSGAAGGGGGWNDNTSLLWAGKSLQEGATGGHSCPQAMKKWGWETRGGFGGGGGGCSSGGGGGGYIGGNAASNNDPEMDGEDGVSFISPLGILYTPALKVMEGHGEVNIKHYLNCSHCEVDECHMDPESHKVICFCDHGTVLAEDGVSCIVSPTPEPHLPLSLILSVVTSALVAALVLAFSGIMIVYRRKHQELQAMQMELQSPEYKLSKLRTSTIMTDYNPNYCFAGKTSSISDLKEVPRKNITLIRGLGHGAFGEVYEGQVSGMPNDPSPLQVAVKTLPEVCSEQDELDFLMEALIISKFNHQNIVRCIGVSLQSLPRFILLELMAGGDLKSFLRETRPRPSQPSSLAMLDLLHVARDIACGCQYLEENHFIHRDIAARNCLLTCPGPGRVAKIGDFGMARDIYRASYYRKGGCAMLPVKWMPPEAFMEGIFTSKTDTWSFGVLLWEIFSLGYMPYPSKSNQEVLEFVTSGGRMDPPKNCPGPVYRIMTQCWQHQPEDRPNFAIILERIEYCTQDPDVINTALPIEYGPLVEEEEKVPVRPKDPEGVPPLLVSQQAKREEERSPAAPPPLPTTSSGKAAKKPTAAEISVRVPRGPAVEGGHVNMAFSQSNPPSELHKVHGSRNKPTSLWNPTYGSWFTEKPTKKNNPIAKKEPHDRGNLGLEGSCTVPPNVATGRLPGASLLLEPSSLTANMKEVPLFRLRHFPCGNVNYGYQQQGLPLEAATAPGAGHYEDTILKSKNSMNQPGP

clearance [1]: 22.1 mL/min/kg | ambit score (ALK): < 10 | concentration inducing dephosphorylation of Ser910 and 935 (GFP-LRRK2[A2016T]): 1 to 3 µM | ambit score (FLT3(D835Y)): < 10 | inhibition at 10 µM (smMLCK): > 50% | IC50 [2]: ~10 nM
Structure (SMILES): O=C(Nc1cccnc1)c1cc(-c2ccnc(F)c2)ccc1OCc1ccccc1 [GSK2578215A, 2-(benzyloxy)-5-(2-fluoropyridin-4-yl)-N-(pyridin-3-yl)benzamide]
inhibition of LRRK2 Ser910 or Ser935 phosphorylation in brain (LRRK2; brain): no inhibition; also recorded: failed to induce significant inhibition | Ser910 and Ser935 dephosphorylation of LRRK2 in kidney (LRRK2; kidney): complete Ser910 and Ser935 dephosphorylation | Ser910 and Ser935 dephosphorylation of LRRK2 in spleen (LRRK2; spleen): complete Ser910 and Ser935 dephosphorylation
